By IC50 is commonly meant the concentration that gives 50% inhibition. The IC90 is the point of the concentration-response curve where the effect stands at 90%.

Results on 46 compounds are retold here after PubChem BioAssay AID449764 (Southern Research Specialized Biocontainment Screening …, 2010).

This assay concerns Mycobacterium tuberculosis H37Rv growth inhibition, no glycerol. Nature of the assay: Confirmatory growth inhibition assay, Mycobacterium tuberculosis H37Rv, absence of glycerol (AID 449764).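 On all read-outs here: growth read after 7 days of incubation.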 Conditions: for IC90: measured here: IC90 growth inhibition.

For `COc1ccc(C[C@H](N)C(=O)N[C@H]2[C@@H](O)[C@H](n3cnc4c(N(C)C)ncnc43)O[C@@H]2CO)cc1`, the IC50 was 3.95 µM and the 90% effect concentration (IC90) is 5.82 µM.

Regarding `COc1cc2nc(N3CCN(c4cc(C)ccc4C)CC3)nc(N)c2cc1OC`, the IC50 was 15.3 µM and the IC90 worked out at 18.7 µM.

Take `CC(C)CS(=O)(=O)C1=NN2C(=N)/C(=C\c3ccc(OC(=O)c4ccco4)cc3)C(=O)N=C2S1`: the IC50 is 20.9 µM and the IC90 came out at 26.5 µM.

As to `CC(=O)C1=C(C)NC(SCC(=O)c2ccc(F)cc2)=C(C#N)C1c1ccco1` (stereo unspecified), the 50% inhibitory concentration (IC50) is 32.7 µM and the IC90 was 49.8 µM.

Take `CCCCCCCNC(=O)C1(CC2CC(c3cccc(Br)c3)=NO2)CCNCC1` (stereo unspecified): the IC50 was 52.1 µM and the IC90 amounted to 80.4 µM.

As to `O=C(NCCc1ccccc1)[C@@H]1CC=C[C@@H]2CCN(Cc3ccc(Cl)c(Cl)c3)C(=O)[C@@H]21`, the IC50 is 63.8 µM and the IC90 was 85.5 µM.

As for `Cc1ccc(C)c(-c2nn(-c3cc(N4CCN(CCO)CC4)ccc3[N+](=O)[O-])c(=O)c3ccccc23)c1`, the IC50 is 22.6 µM and the IC90 came out at 25.7 µM.

Take `CC1CC(C)(C)Nc2ccc(OC(=O)c3ccco3)cc21` (stereo unspecified): the 50% inhibitory concentration (IC50) is 21.7 µM and the IC90 came to 29.5 µM.

As to `CCOC(=O)C1CCCc2c1[nH]c1c(C(N)=O)cccc21` (stereo unspecified), the IC50 is 8.59 µM and the IC90 was 17.3 µM.

Turning to `O=C(c1ccc(Br)cc1)C(CN1CCOCC1)c1ccccc1` (stereo unspecified), the 50% inhibitory concentration (IC50) is 12 µM and the IC90 came out at 13.8 µM.

On to `C#CCOCCOCCOCCNc1nc(N2CCN(C(=O)C(Cc3ccc(O)cc3)n3cc(C(N)CC(C)C)nn3)CC2)nc(N2CCN(C(=O)C(Cc3cc4ccccc4[nH]3)n3cc(C(N)Cc4ccc(O)cc4)nn3)CC2)n1` (stereo unspecified), for which the concentration for half-maximal inhibition (IC50) is 16.9 µM and the IC90 was 23.8 µM.

Turning to `COc1ccc(C(=O)Cn2nc(CNc3ccc(Br)cc3)[n+]3c2CCCCC3)cc1`, the half-maximal inhibitory concentration (IC50) is 12.3 µM and the concentration for an effect of 90% (IC90) amounted to 14.1 µM.

For the compound `C=CCNc1oc(-c2ccc(-c3ccccc3)cc2)nc1C#N`, the IC50 is 16.1 µM and the IC90 came out at 19.6 µM.

`O=C(CSC(=S)N1CCCC1)c1cc(Br)cc(Br)c1O`: the concentration for half-maximal inhibition (IC50) was 41.2 µM and the 90% effect concentration (IC90) was 45.4 µM.

With `CCN(C[C@H]1N[C@@](Cc2ccccc2)(C(=O)OC)[C@H]2C(=O)N(Cc3ccccc3)C(=O)[C@@H]12)C(=O)Nc1ccc(C(F)(F)F)cc1`, the IC50 was 8.06 µM and the 90% effect concentration (IC90) amounted to 9.81 µM.

Take `O=c1c2c(-c3ccccc3)csc2ncn1/N=C/c1ccc(O)c([N+](=O)[O-])c1`: the IC50 is 37.1 µM and the 90% effect concentration (IC90) is 59 µM.

With `CCOC(=O)CSc1ncnc2c1sc1nc(N3CCOCC3)c3c(c12)CCCC3`, the IC50 is 24.9 µM and the 90% effect concentration (IC90) came out at 27.9 µM.

Regarding `CCOC(=O)N1CCC(N2Cc3cccc(C(=O)Nc4ccc(N(CC)CC)cc4C)c3C2=O)CC1`, the IC50 is 35.3 µM and the IC90 is over 100 µM.

On to `CC(C)(C)C(=O)N1CCN(c2ccc(NC(=O)c3ccc([N+](=O)[O-])o3)cc2)CC1`, for which the concentration for half-maximal inhibition (IC50) is under 0.2 µM and the IC90 is 1.93 µM.

For the compound `CSc1ccc(CNC(=O)c2ccc(NC(=O)C3=CSCCO3)cc2)cc1`, the IC50 was 7.07 µM and the IC90 was determined as 25.5 µM.

Take `O=C(/C=C/c1cc(Br)ccc1O)c1ccco1`: the IC50 is 15.7 µM and the IC90 is 20.4 µM.

Take `CCOc1ccc(-n2cc(-c3ccccc3)c3c(=O)[nH]cnc32)cc1`: the 50% inhibitory concentration (IC50) is 84 µM and the IC90 was over 100 µM.

Regarding `O=C(c1cccc(-c2ccco2)c1)N1CCCC(N2CCN(c3ccc(F)cc3)CC2)C1` (stereo unspecified), the IC50 was 74.1 µM and the IC90 is 95 µM.

Regarding `COC(=O)/C(=C1/Oc2cc(C)oc(=O)c2S1)C(F)(F)F`, the IC50 was 26 µM and the concentration for an effect of 90% (IC90) is over 100 µM.

Take `CN1CCN(c2ccc(S(=O)(=O)N3CCCCC3)cc2NC(=O)/C=C/c2ccc(Cl)c([N+](=O)[O-])c2)CC1`: the IC50 was 34.9 µM and the IC90 turned out to be 47.6 µM.

Turning to `CC(C)CC[n+]1ccccc1/C=C/c1ccc(N(C)C)cc1`, the 50% inhibitory concentration (IC50) was 10.2 µM and the IC90 was found to be 15.4 µM.

For the compound `CC1C/C(=C\c2cccnc2)C(=O)/C(=C/c2cccnc2)C1` (stereo unspecified), the 50% inhibitory concentration (IC50) was 5.16 µM and the concentration for an effect of 90% (IC90) came out at 8.18 µM.

Consider `Cc1ccc2[nH]c(C)c(CCNC(=O)c3cc4cc([N+](=O)[O-])ccc4oc3=O)c2c1`, for which the IC50 was 11.2 µM and the 90% effect concentration (IC90) was 17.8 µM.

For `c1ccc2c(c1)ncn2CCCCOc1ccc2c(c1)CCC2`, the IC50 is 23.9 µM and the IC90 was 27.4 µM.

For `CCOC(=O)C(C)Sc1nc(-c2cccs2)ccc1C#N` (stereo unspecified), the half-maximal inhibitory concentration (IC50) is 44.2 µM and the IC90 is 50.3 µM.

With `COc1ccc(/C=N/Nc2nncn2N)cc1Br`, the IC50 was 10.5 µM and the concentration for an effect of 90% (IC90) worked out at 13 µM.

As to `CCOC(=O)c1sc2nc(C)nc(SC(C)C(=O)N(C)c3ccccc3)c2c1C` (stereo unspecified), the half-maximal inhibitory concentration (IC50) was 34.8 µM and the IC90 amounted to 44.6 µM.

As for `Oc1ccc(/C=N/NC(=S)N2CCOCC2)cc1`, the half-inhibitory concentration (IC50) is 6.06 µM and the concentration for an effect of 90% (IC90) came to 6.83 µM.

In the case of `CCN1CCN(c2oc(COc3ccc(-c4ccccc4)cc3)nc2C#N)CC1`, the IC50 was 36.4 µM and the concentration for an effect of 90% (IC90) was 47.6 µM.

As for `CC(=O)c1cccc(NC(=O)C2C3C=CC(C3=C(c3ccccc3)c3ccccc3)C2C(=O)O)c1` (stereo unspecified), the IC90 was over 50 µM.

In the case of `CCc1c(C2(O)CCCCC2)[nH]c2ccc(C(F)(F)F)cc12`, the half-maximal inhibitory concentration (IC50) was 40.2 µM and the IC90 is over 50 µM.

Consider `CCOC(=O)c1cnc2ccc(OCC)cc2c1N1CCN(c2ccccc2)CC1`, for which the IC50 is 25.9 µM and the 90% effect concentration (IC90) amounted to 56.7 µM.

In the case of `C[C@]12CC[C@@H]3c4ccc(O)cc4CC[C@H]3[C@@H]1CC[C@@H]2OC(=O)CCC1CCCC1`, the IC50 was 14.5 µM and the IC90 amounted to 35.3 µM.

Regarding `Cc1ccc2[nH]c(C(=O)NN=C3CCCCC3)c(-c3ccccc3)c2c1`, the concentration for half-maximal inhibition (IC50) was 33.6 µM and the IC90 is 53.3 µM.

Take `COc1ccc(C2=CC(c3c(C)nn(-c4ccccc4)c3Cl)n3nnnc3N2)cc1OC` (stereo unspecified): the half-maximal inhibitory concentration (IC50) was 94.1 µM and the concentration for an effect of 90% (IC90) was over 100 µM.

In the case of `NC1=NC[C@H](Cc2ccc(O)cc2)N1CCc1cccc2ccccc12`, the IC50 was 40.9 µM and the concentration for an effect of 90% (IC90) is 45.6 µM.

In the case of `C=CCN(CC=C)C(=S)NC(=O)c1ccc(-c2ccccc2)cc1`, the concentration for half-maximal inhibition (IC50) is 13.6 µM and the concentration for an effect of 90% (IC90) was 22.4 µM.

For `O=C1C(Cl)=C(N2CCOCC2)C(=O)N1c1cccc(Cl)c1`, the IC50 was 6.48 µM and the IC90 is 12.6 µM.

For `c1ccc(Cn2c3ccccc3c3nnc(SCCN4CCCCC4)nc32)cc1`, the IC50 was 27.5 µM and the IC90 stood at 42.1 µM.

Take `COC(=O)C(C)Oc1ccc2c(c1)O/C(=C\c1ccco1)C2=O` (stereo unspecified): the half-maximal inhibitory concentration (IC50) was 11.3 µM and the 90% effect concentration (IC90) is 17.2 µM.

For the compound `Cc1ccc(-n2[nH]c(C)c(C=Nc3ccc(S(=O)(=O)Nc4nccs4)cc3)c2=O)c(C)c1`, the half-maximal inhibitory concentration (IC50) is 6.3 µM and the 90% effect concentration (IC90) came out at 12 µM.
